Reference: patent US10905704B2, “Agents and methods using thereof for the prevention and treatment of stem cell muscle disorders” (ECOLE POLYTECHNIQUE FEDERALE DE LAUSANNE (EPFL), priority 2015, dated 2021)

What was measured:
C2C12 myoblasts = assay: Western blot of senescence and apoptosis markers in C2C12 myoblasts; type: cell-based, mouse; details: late passage C2C12 myoblasts, 6-hour NR treatment
Method: Cell culture and treatments. FACS sorted MuSCs were grown on a 10% Matrigel (Corning)-coated dish and flasks with Fams F-10 media (Gibco), supplemented with 20% fetal bovine serum (FBS, Gibco), 2.5 ng/ml basic fibroblast growth factor (bFGF, Sigma) and penicillin/streptomycin (1×, Gibco). Dishes were coated with 10% growth factor-free Matrigel solution on ice for 7 min then transferred to a 37° C. cell culture incubator overnight before use. Cells were grown for three generations in vitro before experiments with cells plated and passaged at 10^3 cells/ml and 50% confluencies, respectively. C2C12 mouse myoblasts were grown in DMEM (4.5 g/1 glucose, Gibco) supplemented with 10% FBS and penicillin/streptomycin (1×, Gibco). Western blotting. C2C12 cells were lysed in a buffer composed of 50 mM Tris, 150 mM KCl, EDTA 1 mM, NP40 1%, nicotinamide 5 mM, sodium butyrate 1 mM and protease inhibitors cocktail (Roche) at pH 7,4. Proteins were separated by SDS-PAGE and transferred onto nitrocellulose membranes. Blocking and antibody incubations were performed in 3% BSA. The following primary antibodies were used: anti-cleavage caspase 3 (Cell Signalling); Anti-γH2AX (Millipore); anti-β-actin (Sigma). All secondary antibodies were from Jackson Immunoresearch. […]

Grip strength test = type: in vivo, C57BL/6J mice; details: aged mice, NR diet, FIG. 3G
Method: Grip strength test. Muscle strength was assessed by a grip strength behavior task. The grasp strength of each mouse for all four limbs was measured on a pull-grid assembly connected to a grip strength meter (Columbus Instruments). The mouse was drawn along a straight line parallel to the grid until the grip is broken, providing the peak force in grams. This was repeated 4 times with 5 minute intervals between measurements.

With NC(=O)c1ccc[n+]([C@@H]2O[C@H](CO)[C@@H](O)[C@H]2O)c1 [NR, nicotinamide riboside] as the compound, how does the “expression of cell senescence and apoptosis markers (γH2AX, cleaved caspase3)” value (C2C12 myoblasts) read?
The value was “reduced the expression of cell senescence and apoptosis markers”.

And the limb grip strength (Grip strength test)?
The limb grip strength was “improvements”.
